What all share (type): cell-based
The subject of assay [1] is P388 cell line. As to the kind of experiment: P388 murine lymphocytic leukemia cell assay. The protocol:
Cells from a P388 cell line (CellGate, Inc., Sunnyvale, Calif.) are grown in RPMI 1640 cell medium containing fetal calf serum (10%), L-glutamine, penicillin, streptomycin and are split twice weekly. All compounds are first diluted with DMSO. Later serial dilutions are done with a phosphate buffer solution (HYQ DPBS modified phosphate buffered saline). All dilutions are done in glass vials and the final DMSO concentration is always below 0.5% by volume. Final two-fold dilutions are done in a 96 well plate using cell media so that each well contains 50 μL. All compounds are assayed in quadruplicate over 12 concentrations. Cell concentration is measured using a hemacytometer and the final cell concentration is adjusted to 1×10^4 cells/mL with cell medium. The resulting solution of cells (50 μL) is then added to each well and the plates are incubated for 5 days in a 37° C., 5% CO2, humidified incubator (Sanyo CO2 incubator). MTT solution (3-[4,5-dimethylthiazol-2-yl]-2,5-diphenyltetrazolium bromide, 10 μL) is then added to each well and the plates are re-incubated under identical conditions for 2 h. To each well is then added acidified isopropanol (150 μL of i-PrOH solution containing 0.05 N HCl) and mixed thoroughly. The plates are then scanned at 595 nm and the absorbances are read (Wallac Victor 1420 Multilabel Counter). The resulting data is then analyzed to determine an ED50 value using the Prism software package (GraphPad).

The subject of assay [2] is SK-MEL-28. As to the kind of experiment: NCI human cancer cell line growth inhibition: SK-MEL-28 (Melanoma). As to conditions: Homo sapiens.
Assay [3] deals with SF-539. Nature of the assay: NCI human cancer cell line growth inhibition: SF-539 (CNS). As to conditions: Homo sapiens.
In assay [4] the test system is A498. Nature of the assay: NCI human cancer cell line growth inhibition: A498 (Renal). As to conditions: Homo sapiens.
In assay [5] the test system is K-562. Nature of the assay: NCI human cancer cell line growth inhibition: K-562 (Leukemia). Particulars: Homo sapiens, K562.
The test system of assay [6] is SNB-19. Nature of the assay: NCI human cancer cell line growth inhibition: SNB-19 (CNS). Particulars: Homo sapiens.
Assay [7] has as its system U251. Nature of the assay: NCI human cancer cell line growth inhibition: U251 (CNS). Particulars: Homo sapiens, U-251.
Assay [8] has as its system HCT-15. Nature of the assay: NCI human cancer cell line growth inhibition: HCT-15 (Colon). As to conditions: Homo sapiens.
Assay [9] has as its system UACC-257. Nature of the assay: NCI human cancer cell line growth inhibition: UACC-257 (Melanoma). As to conditions: Homo sapiens.
The test system of assay [10] is MDA-MB-435. Nature of the assay: NCI human cancer cell line growth inhibition: MDA-MB-435 (Breast). As to conditions: Homo sapiens.
Assay [11] has as its system SF-268. As to the kind of experiment: NCI human cancer cell line growth inhibition: SF-268 (CNS). As to conditions: Homo sapiens.
The test system of assay [12] is SF-295. Nature of the assay: NCI human cancer cell line growth inhibition: SF-295 (CNS). As to conditions: Homo sapiens.
For assay [13], the system named is IGROVI. As to the kind of experiment: NCI human cancer cell line growth inhibition: IGROVI (Ovarian). As to conditions: Homo sapiens.
Assay [14] deals with COLO 205. As to the kind of experiment: NCI human cancer cell line growth inhibition: COLO 205 (Colon). As to conditions: Homo sapiens.
The test system of assay [15] is OVCAR-3. As to the kind of experiment: NCI human cancer cell line growth inhibition: OVCAR-3 (Ovarian). As to conditions: Homo sapiens.
In assay [16] the test system is CAKI-1. As to the kind of experiment: NCI human cancer cell line growth inhibition: CAKI-1 (Renal). As to conditions: Homo sapiens.
Assay [17] deals with SN12C. Nature of the assay: NCI human cancer cell line growth inhibition: SN12C (Renal). Particulars: Homo sapiens.

We go through one compound from US8735609B2, “Bryostatin analogues, synthetic methods and uses” (The Board of Trustees of the Leland Stanford Junior …, priority 2007, dated 2014).

Regarding `CCCCCCCC(=O)O[C@H]1/C(=C/C(=O)OC)C[C@H]2C[C@H](CO)OC(=O)C[C@H](O)C[C@@H]3CCC[C@H](C[C@@H]4CCO[C@H](/C=C/C(C)(C)[C@]1(O)O2)O4)O3` [Formula IIa (702.1)], in assay [1], the “activity in P388 assay compared with the corresponding C26 methyl-containing analogue” value is “significantly higher activity”. Moreover, the EC50 in assay [1] (Mus musculus, P388, 120 h, read-out: P388 Assay ED50) is 17 nM. The GI50 (in general, the concentration at which growth is held to half of that of the control) is 21.4 µM in [2]; 1700 nM in assay [3]; 417 nM in assay [4]; 31.6 nM in [5]; 6.31 µM in assay [6]; 3.98 µM in assay [7]. The concentration for 50% growth inhibition (GI50) in [8] is 17.4 µM; in assay [9] it was 7.41 µM; in assay [10], 21.9 nM; in assay [11], 10.7 µM; in assay [12], 891 nM; in assay [13], 13.2 µM. Further, the GI50 in assay [14] is 83.2 nM; in [15], 14.8 µM; in assay [16], 2000 nM; in assay [17] it was 2570 nM.
